Laboratory results: ChEMBL document CHEMBL4616632, “Discovery of Cyclic Boronic Acid QPX7728, an Ultrabroad-Spectrum Inhibitor of Serine and Metallo-β-lactamases” (J Med Chem, 2020)

Test system: Escherichia coli
Test: Inhibition of Escherichia coli EC302 TEM-10 assessed as minimum concentration of compound needed to reduce the MIC of aztreonam to 4 ug/ml

Structure (SMILES) | MEC
O=C(O)c1cccc2c1OB(O)[C@@H]1C[C@H]21 | 0.16 µg/mL
C[C@@H]1Cc2cccc(C(=O)O)c2OB1O | > 20 µg/mL
O=C(O)c1cccc2c1OB(O)[C@H]1C[C@@H]21 | 5 µg/mL

Second part, the molecule after the results:

MEC | Structure (SMILES)
0.6 µg/mL | COc1ccc2c(c1C(=O)O)OB(O)[C@H]1C[C@@H]21
20 µg/mL | COc1ccc2c(c1C(=O)O)OB(O)C=C2
5 µg/mL | COc1ccc2c(c1C(=O)O)OB(O)C1(CO)CC21 (stereo not drawn)

Target: Beta-lactamase OXA-23 (Acinetobacter baumannii) (UniProt Q9L4P2)
Sequence (Q9L4P2 whole entry): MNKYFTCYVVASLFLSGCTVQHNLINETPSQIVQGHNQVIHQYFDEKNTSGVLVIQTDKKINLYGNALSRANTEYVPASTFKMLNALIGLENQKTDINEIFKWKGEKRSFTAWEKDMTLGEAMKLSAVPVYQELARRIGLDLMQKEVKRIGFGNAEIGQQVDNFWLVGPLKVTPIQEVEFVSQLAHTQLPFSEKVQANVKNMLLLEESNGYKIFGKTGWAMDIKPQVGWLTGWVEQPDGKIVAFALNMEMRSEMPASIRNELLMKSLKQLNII
Test: Inhibition of Acinetobacter baumannii AB1054 OXA-23 assessed as minimum concentration of compound needed to reduce the MIC of meropenem to 8 ug/ml

Structure (SMILES) | MEC
O=C(O)c1cccc2c1OB(O)[C@@H]1C[C@H]21 | 10 µg/mL
C[C@@H]1Cc2cccc(C(=O)O)c2OB1O | > 20 µg/mL
O=C(O)c1cccc2c1OB(O)[C@H]1C[C@@H]21 | 20 µg/mL

Further lines, results first:

MEC | Structure (SMILES)
1.25 µg/mL | COc1ccc2c(c1C(=O)O)OB(O)[C@H]1C[C@@H]21
> 20 µg/mL | COc1ccc2c(c1C(=O)O)OB(O)C=C2
10 µg/mL | COc1ccc2c(c1C(=O)O)OB(O)C1(CO)CC21 (stereo not drawn)

Test system: Klebsiella pneumoniae
Test: Inhibition of Klebsiella pneumoniae KP1009 CTX-M-15 assessed as minimum concentration of compound required to reduce the MIC of aztreonam to 4 ug/ml

Structure (SMILES) | MEC
O=C(O)c1cccc2c1OB(O)[C@@H]1C[C@H]21 | 0.6 µg/mL
C[C@@H]1Cc2cccc(C(=O)O)c2OB1O | > 20 µg/mL
O=C(O)c1cccc2c1OB(O)[C@H]1C[C@@H]21 | 10 µg/mL

Other lines, results leading:

MEC | Structure (SMILES)
0.6 µg/mL | COc1ccc2c(c1C(=O)O)OB(O)[C@H]1C[C@@H]21
10 µg/mL | COc1ccc2c(c1C(=O)O)OB(O)C=C2
10 µg/mL | COc1ccc2c(c1C(=O)O)OB(O)C1(CO)CC21 (stereo not drawn)

Target: Beta-lactamase (Klebsiella pneumoniae) (UniProt Q93LQ9)
Sequence (Q93LQ9 as listed by the source): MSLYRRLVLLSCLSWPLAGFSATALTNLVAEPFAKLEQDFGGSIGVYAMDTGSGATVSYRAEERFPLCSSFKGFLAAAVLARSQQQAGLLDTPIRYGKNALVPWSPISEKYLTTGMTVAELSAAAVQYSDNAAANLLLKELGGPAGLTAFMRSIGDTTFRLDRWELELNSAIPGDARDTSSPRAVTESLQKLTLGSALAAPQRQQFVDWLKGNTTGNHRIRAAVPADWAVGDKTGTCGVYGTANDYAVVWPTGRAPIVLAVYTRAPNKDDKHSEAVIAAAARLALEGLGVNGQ
Test: Inhibition of Klebsiella pneumoniae KP1004 KPC-2 assessed as minimum concentration of compound needed to reduce the MIC of aztreonam to 4 ug/ml

Structure (SMILES) | MEC
O=C(O)c1cccc2c1OB(O)[C@@H]1C[C@H]21 | 0.16 µg/mL
C[C@@H]1Cc2cccc(C(=O)O)c2OB1O | 5 µg/mL
O=C(O)c1cccc2c1OB(O)[C@H]1C[C@@H]21 | 0.16 µg/mL

The remaining lines, values ahead:

MEC | Structure (SMILES)
0.16 µg/mL | COc1ccc2c(c1C(=O)O)OB(O)[C@H]1C[C@@H]21
2.5 µg/mL | COc1ccc2c(c1C(=O)O)OB(O)C=C2
1.25 µg/mL | COc1ccc2c(c1C(=O)O)OB(O)C1(CO)CC21 (stereo not drawn)

Test system: Pseudomonas aeruginosa
Test: Inhibition of Pseudomonas aeruginosa PAM 2035 AmpC assessed as minimum concentration of compound needed to reduce the MIC of aztreonam to 4 ug/ml

Structure (SMILES) | MEC
O=C(O)c1cccc2c1OB(O)[C@@H]1C[C@H]21 | 0.6 µg/mL
C[C@@H]1Cc2cccc(C(=O)O)c2OB1O | 1.25 µg/mL
O=C(O)c1cccc2c1OB(O)[C@H]1C[C@@H]21 | 2.5 µg/mL

More lines, now with the values ahead:

MEC | Structure (SMILES)
2.5 µg/mL | COc1ccc2c(c1C(=O)O)OB(O)[C@H]1C[C@@H]21
10 µg/mL | COc1ccc2c(c1C(=O)O)OB(O)C=C2
20 µg/mL | COc1ccc2c(c1C(=O)O)OB(O)C1(CO)CC21 (stereo not drawn)

Test system: Klebsiella pneumoniae
Test: Inhibition of Klebsiella pneumoniae KP1081 NDM-1 assessed as minimum concentration of compound required to reduce the MIC of biapenem to 1 ug/ml

Structure (SMILES) | MEC
O=C(O)c1cccc2c1OB(O)[C@@H]1C[C@H]21 | 0.6 µg/mL
C[C@@H]1Cc2cccc(C(=O)O)c2OB1O | 10 µg/mL
O=C(O)c1cccc2c1OB(O)[C@H]1C[C@@H]21 | 1.25 µg/mL

Continued, values first:

MEC | Structure (SMILES)
0.6 µg/mL | COc1ccc2c(c1C(=O)O)OB(O)[C@H]1C[C@@H]21
> 20 µg/mL | COc1ccc2c(c1C(=O)O)OB(O)C=C2
0.6 µg/mL | COc1ccc2c(c1C(=O)O)OB(O)C1(CO)CC21 (stereo not drawn)

Test system: Acinetobacter baumannii
Test: Inhibition of Acinetobacter baumannii AB1053 OXA-72 assessed as minimum concentration of compound needed to reduce the MIC of meropenem to 8 ug/ml

Structure (SMILES) | MEC
O=C(O)c1cccc2c1OB(O)[C@@H]1C[C@H]21 | 5 µg/mL
C[C@@H]1Cc2cccc(C(=O)O)c2OB1O | > 20 µg/mL
O=C(O)c1cccc2c1OB(O)[C@H]1C[C@@H]21 | 20 µg/mL

Next, values leading:

MEC | Structure (SMILES)
0.6 µg/mL | COc1ccc2c(c1C(=O)O)OB(O)[C@H]1C[C@@H]21
20 µg/mL | COc1ccc2c(c1C(=O)O)OB(O)C=C2
2.5 µg/mL | COc1ccc2c(c1C(=O)O)OB(O)C1(CO)CC21 (stereo not drawn)

Test system: Klebsiella pneumoniae
Test: Inhibition of Klebsiella pneumoniae KP1160 IMP-26 assessed as minimum concentration of compound needed to reduce the MIC of meropenem to 1 ug/ml

Structure (SMILES) | MEC
O=C(O)c1cccc2c1OB(O)[C@@H]1C[C@H]21 | 20 µg/mL
C[C@@H]1Cc2cccc(C(=O)O)c2OB1O | > 20 µg/mL
O=C(O)c1cccc2c1OB(O)[C@H]1C[C@@H]21 | > 20 µg/mL

Continued, values first:

MEC | Structure (SMILES)
20 µg/mL | COc1ccc2c(c1C(=O)O)OB(O)[C@H]1C[C@@H]21
> 20 µg/mL | COc1ccc2c(c1C(=O)O)OB(O)C=C2
2.5 µg/mL | COc1ccc2c(c1C(=O)O)OB(O)C1(CO)CC21 (stereo not drawn)

Test system: Escherichia coli
Test: Inhibition of Escherichia coli KP308 SHV-5 assessed as minimum concentration of compound required to reduce the MIC of aztreonam to 4 ug/ml

Structure (SMILES) | MEC
O=C(O)c1cccc2c1OB(O)[C@@H]1C[C@H]21 | 0.3 µg/mL
C[C@@H]1Cc2cccc(C(=O)O)c2OB1O | > 20 µg/mL
O=C(O)c1cccc2c1OB(O)[C@H]1C[C@@H]21 | 5 µg/mL

Results, then the molecule that gave them:

MEC | Structure (SMILES)
0.3 µg/mL | COc1ccc2c(c1C(=O)O)OB(O)[C@H]1C[C@@H]21
20 µg/mL | COc1ccc2c(c1C(=O)O)OB(O)C=C2
5 µg/mL | COc1ccc2c(c1C(=O)O)OB(O)C1(CO)CC21 (stereo not drawn)

Test system: Enterobacter cloacae
Test: Inhibition of Enterobacter cloacae ECL1002 AmpC assessed as minimum concentration of compound needed to reduce the MIC of aztreonam to 4 ug/ml

Structure (SMILES) | MEC
O=C(O)c1cccc2c1OB(O)[C@@H]1C[C@H]21 | 0.3 µg/mL
C[C@@H]1Cc2cccc(C(=O)O)c2OB1O | > 20 µg/mL
O=C(O)c1cccc2c1OB(O)[C@H]1C[C@@H]21 | 10 µg/mL

Further lines, results first:

MEC | Structure (SMILES)
1.25 µg/mL | COc1ccc2c(c1C(=O)O)OB(O)[C@H]1C[C@@H]21
10 µg/mL | COc1ccc2c(c1C(=O)O)OB(O)C=C2
2.5 µg/mL | COc1ccc2c(c1C(=O)O)OB(O)C1(CO)CC21 (stereo not drawn)

Test system: Klebsiella pneumoniae
Test: Inhibition of Klebsiella pneumoniae KP1054 VIM-1 assessed as minimum concentration of compound required to reduce the MIC of biapenem to 1 ug/ml

Structure (SMILES) | MEC
O=C(O)c1cccc2c1OB(O)[C@@H]1C[C@H]21 | 0.16 µg/mL
C[C@@H]1Cc2cccc(C(=O)O)c2OB1O | 20 µg/mL
O=C(O)c1cccc2c1OB(O)[C@H]1C[C@@H]21 | 10 µg/mL

Further lines, results first:

MEC | Structure (SMILES)
0.3 µg/mL | COc1ccc2c(c1C(=O)O)OB(O)[C@H]1C[C@@H]21
> 20 µg/mL | COc1ccc2c(c1C(=O)O)OB(O)C=C2
0.16 µg/mL | COc1ccc2c(c1C(=O)O)OB(O)C1(CO)CC21 (stereo not drawn)

Test system: Escherichia coli
Test: Inhibition of Escherichia coli ECM6625 SHV-5 assessed as minimum concentration of compound needed to reduce the MIC of aztreonam to 4 ug/ml

Structure (SMILES) | MEC
O=C(O)c1cccc2c1OB(O)[C@@H]1C[C@H]21 | 0.3 µg/mL
C[C@@H]1Cc2cccc(C(=O)O)c2OB1O | > 20 µg/mL
O=C(O)c1cccc2c1OB(O)[C@H]1C[C@@H]21 | 5 µg/mL

Continued, values first:

MEC | Structure (SMILES)
0.3 µg/mL | COc1ccc2c(c1C(=O)O)OB(O)[C@H]1C[C@@H]21
20 µg/mL | COc1ccc2c(c1C(=O)O)OB(O)C=C2
5 µg/mL | COc1ccc2c(c1C(=O)O)OB(O)C1(CO)CC21 (stereo not drawn)

Test system: Escherichia coli
Test: Inhibition of Escherichia coli ECM6619 TEM-10 assessed as minimum concentration of compound needed to reduce the MIC of aztreonam to 4 ug/ml

Structure (SMILES) | MEC
O=C(O)c1cccc2c1OB(O)[C@@H]1C[C@H]21 | 0.16 µg/mL
C[C@@H]1Cc2cccc(C(=O)O)c2OB1O | > 20 µg/mL
O=C(O)c1cccc2c1OB(O)[C@H]1C[C@@H]21 | 5 µg/mL

The remaining lines, values ahead:

MEC | Structure (SMILES)
0.6 µg/mL | COc1ccc2c(c1C(=O)O)OB(O)[C@H]1C[C@@H]21
20 µg/mL | COc1ccc2c(c1C(=O)O)OB(O)C=C2
5 µg/mL | COc1ccc2c(c1C(=O)O)OB(O)C1(CO)CC21 (stereo not drawn)
